Measured values: US20110229415A1, “SEMI-SYNTHETIC ANTIBODIES AS RECOGNITION ELEMENTS” (priority 2007, published 2011)

Columns and labels:
Type in all cases: binding
[1] = molecular target: mouse anti-human IL-6 antibody; test: Determination of KD by competitive labeling with 2-N3ATP [γ 32P] and 2-N3ATP-fluorophore; conditions: competition with 30 μM 2-N3ATP [γ 32P], 2 μg antibody, photolysis; read-out: apparent KD
Protocol: Determination of KD of the monoclonal antibody for 2-N3ATP-fluorophore. Competitive labeling of the mouse anti-human IL-6 antibody with 2-N3ATP [γ ^32P] and 2-N3ATP-fluorophore was done. 30 μM 2-N3ATP [γ ^32P] and 2 μg of the antibody was added to each 10 μM, 20 μM, 40 μM, 60 μM, 80 μM, 100 μM and 120 μM of 2-N3ATP-fluorophore tube and incubated for 20 min on ice. The tubes were then photolyzed for 1 min 15 s. The reaction was quenched by adding 5 μl of 0.25 mg/ml cysteine and analyzed by SDS/PAGE and autoradiography.

mAb against Osteonectin = test: Labeling of mAb against Osteonectin with radioactive probes
Protocol: 2N3ATP versus [γ^32P] 8N3ATP. Lanes A and D have […] have 10 μL, and C and F have 15 μL of the labeled antibody. [γ^32P] 2N3ATP labels the antibody better than [γ^32P] 8N3ATP.

[2] = tested on: Mouse anti-Human IL-6 monoclonal antibody; test: Selecting the photoaffinity probe: photolabeling of antibody with radioactive nucleotide probes, SDS PAGE/autoradiography; conditions: IL-6 antibody, 300 μM of each probe, pH 4.0
Protocol: Selecting the photoaffinity probe. Two radioactive nucleotide probes, [γ-^32P]8-N3ATP and [γ-^32P]2-N3ATP were tested towards their reactivity with Mouse anti-Human IL-6 monoclonal antibody. For the labeling procedure 8 μg antibody was incubated with 300 μM of each probe in two different tubes in a final volume of 62 μl for 10 min on ice. The buffer used was 100 mM BTP at pH 4.0. After 10 min incubation the two tubes were photolyzed with a hand held UV lamp at 254 nm for 2 min and the reaction mixture was agitated in between to prevent local heating. The reaction was quenched by adding 12 μl of loading dye, PSM (5×) and heating it in a water bath for 5 min. The reaction products were then analyzed by SDS PAGE. ^32P incorporation was detected by autoradiography.

[3] = tested on: Mouse anti-Human IL-6 monoclonal antibody; test: Saturation of labeling of antibody with photoreactive probe; conditions: 2 μg antibody, increasing probe concentrations, photolysis at 254 nm
Protocol: Saturation of labeling. 2 μg of Mouse anti-Human IL-6 monoclonal antibody was incubated with increasing concentrations of [γ-^32P]2-N3ATP for 20 min on ice and photolyzed with a hand held lamp at 254 nm for 1 min 15 sec. The reaction was quenched by adding 5 μl of 0.25 mg/ml cysteine and analyzed by SDS/PAGE and autoradiography.

Compound | Kd [1] | labeling of the antibody, compared with the 8-azido probe (mAb against Osteonectin) | labeling of the antibody, compared with the 8-azido probe [2] | saturation of photolabeling (probe concentration) [3]
2-N3ATP-Alexa Fluor 594 cadaverine | ~17 µM |  |  | 
[N-]=[N+]=Nc1nc(N)c2ncn([C@@H]3O[C@H](COP(=O)(O)OP(=O)(O)OP(=O)(O)O)[C@@H](O)[C@H]3O)c2n1 [2-N3ATP, 2-azido ATP] |  | greater efficiency as compared to 8-azido ATP | greater efficiency as compared to 8-N3ATP | 
[N-]=[N+]=Nc1nc(N)c2ncn([C@@H]3O[C@H](COP(=O)(O)OP(=O)(O)O[32P](=O)(O)O)[C@@H](O)[C@H]3O)c2n1 [[γ-^32P]-2-N3ATP] |  | better than [γ^32P] 8N3ATP | better than [γ-^32P]-8-N3ATP | ~25 ΞM
